Assay results as given in patent publication US7034035B2, “Fungicidal mono-, bi-, and tri-cycloheteroalkyl amides and their compositions, methods of use and preparation” (priority 1999, dated 2006).
Where two headings read alike, the source gives them in different places.

Experiments:
[1] = tested on: Rhizoctonia solani (RHIZSO); test: microbe, parasite or virus in culture; format: cell-based
[2] = tested on: Ustilago maydis (USTIMA); test: microbe, parasite or virus in culture; format: cell-based
[3] = tested on: Leptosphaeria nodorum—LEPTNO; test: Glume Blotch of Wheat, in vivo whole plant, 24 Hour Protectant; details: Leptosphaeria, 24 h, inoculated after 24 hours, read-out: LEPTNO in vivo 1 Day Protectant
[4] = wheat (cultivar Yuma), sprayed at 100 ppm, control of fungal infection vs untreated plants
[5] = wheat plants sprayed at 100 ppm, control vs untreated plants

SMILES	pest or weed control at 100 ppm [3, 4]	also measured
COc1ccnc(C(=O)NC2CC(C)(C)CC(C)(C(=O)CCCc3ccccc3)C2)c1O (stereo not shown) [Compound 276]	75 to 100%	RHIZSO in vitro Growth Inhibition [1]: − (key: +: at least 80% growth inhibition; −: less than 80% growth inhibition); USTIMA in vitro Growth Inhibition [2]: − (key: +: at least 80% growth inhibition; −: less than 80% growth inhibition)
COc1ccnc(C(=O)NC2CSCC(c3ccccc3)C2)c1O (stereo not shown) [Compound 324]	75 to 100%	RHIZSO in vitro Growth Inhibition [1]: + (key: +: at least 80% growth inhibition; −: less than 80% growth inhibition); USTIMA in vitro Growth Inhibition [2]: + (key: +: at least 80% growth inhibition; −: less than 80% growth inhibition)
COc1ccnc(C(=O)N[C@H]2CC[C@H]3C4CCC(CC4)[C@H]3C2=O)c1O [Compound 292]	75 to 100%	RHIZSO in vitro Growth Inhibition [1]: − (key: +: at least 80% growth inhibition; −: less than 80% growth inhibition); USTIMA in vitro Growth Inhibition [2]: − (key: +: at least 80% growth inhibition; −: less than 80% growth inhibition)
COc1ccnc(C(=O)N[C@H]2COC(=O)[C@H](Cc3ccccc3)[C@@H](OC(=O)C(C)(C)C)[C@H](C)OC2=O)c1O [Compound 388]	75 to 100%	–
O=C(Nc1ccc(Oc2ccccc2)cc1)c1cccnc1O [Compound 522]	–	pest or weed control at 100 ppm [3, 5]: 75 to 100%
CO/N=C(/c1ccc(NC(=O)c2nccc(OC)c2O)cc1)c1ccc(C(F)(F)F)cc1 [Compound 409]	75 to 100%	–
COc1ccnc(C(=O)N[C@H]2COC(=O)[C@H](Cc3ccccc3)[C@@H](OC(=O)c3ccccc3)[C@H](C)OC2=O)c1O [Compound 394]	75 to 100%	–
COc1ccnc(C(=O)Nc2ccc(OC3CC(C)(C)OC(C)(C)C3)cc2)c1O [Compound 459]	–	pest or weed control at 100 ppm [3, 5]: 75 to 100%
CC(C)C(=O)O[C@H]1[C@H](C)OC(=O)[C@@H](NC(=O)c2nscc2O)COC(=O)[C@@H]1Cc1ccccc1 [Compound 550]	–	pest or weed control at 100 ppm [3, 5]: 75 to 100%
COc1ccnc(C(=O)Nc2cccc(Oc3ccc(Cl)cc3)c2)c1O [Compound 440]	75 to 100%	–
COc1ccnc(C(=O)Nc2ccc(Sc3cccc(C(F)(F)F)c3)cc2)c1O [Compound 445]	75 to 100%	–
CC(C)C(=O)O[C@H]1[C@H](C)OC(=O)[C@@H](NC(=O)c2ccncc2O)COC(=O)[C@@H]1Cc1ccccc1 [Compound 513]	–	pest or weed control at 100 ppm [3, 5]: 75 to 100%
COc1ccnc(C(=O)N[C@H]2COC(=O)[C@H](Cc3ccccc3)[C@@H](OC(=O)C3CCCCC3)[C@H](C)OC2=O)c1O [Compound 392]	75 to 100%	–
COc1ccnc(C(=O)N[C@H]2COC(=O)[C@H](Cc3ccccc3)C[C@H](C)OC2=O)c1O [Compound 382]	75 to 100%	–
COc1ccnc(C(=O)N[C@H]2COC(=O)[C@H](Oc3ccccc3)[C@@H](OC(=O)C(C)C)[C@H](C)OC2=O)c1O [Compound 403]	75 to 100%	–
COc1ccnc(C(=O)Nc2ccc(Oc3ccc(C)cc3)cc2)c1O [Compound 417]	75 to 100%	–
COc1ccnc(C(=O)N[C@H]2COC(=O)[C@H](Cc3ccccc3)[C@@H](OC(C)=O)[C@H](C)OC2=O)c1O [Compound 385]	75 to 100%	–
COc1ccnc(C(=O)N[C@H]2COC(=O)[C@H](Cc3ccccc3)[C@@H](OC(=O)OC(C)C)[C@H](C)OC2=O)c1O [Compound 401]	75 to 100%	–
Cc1ccc(C(=O)N[C@H]2COC(=O)[C@H](Cc3ccccc3)[C@@H](OC(=O)C(C)C)[C@H](C)OC2=O)c(O)n1 [Compound 525]	–	pest or weed control at 100 ppm [3, 5]: 75 to 100%
CC(C)C(=O)O[C@H]1[C@H](C)OC(=O)[C@@H](NC(=O)c2nccnc2O)COC(=O)[C@@H]1Cc1ccccc1 [Compound 534]	–	pest or weed control at 100 ppm [3, 5]: 75 to 100%
C=C(C)C(=O)O[C@H]1[C@H](C)OC(=O)[C@@H](NC(=O)c2nccc(OC)c2O)COC(=O)[C@@H]1Cc1ccccc1 [Compound 386]	75 to 100%	–
COc1ccnc(C(=O)NC(C(=O)OCC(C)C)C(C)OC(=O)C(C)Cc2ccccc2)c1O (stereo not shown) [Compound 360]	75 to 100%	–
